Source: patent US6723716B1, “7-acylamino-3-heteroarylthio-3-cephem carboxylic acid antibiotics and prodrugs thereof” (Essential Therapeutics, Inc., priority 1999, dated 2004)

What was measured:
[1] = test system: rat serum proteins; test: Serum binding determination by ultrafiltration/HPLC; format: in vitro ADME; conditions: by HPLC
[2] = test system: rhesus serum proteins; test: as above; format: in vitro ADME; conditions: by HPLC
[3] = test system: S. aureus ATCC 13709 (Smith diffuse); test: Murine lethal bacteremic peritonitis (septicemia) efficacy; format: in vivo, mice; conditions: for responders at 0.078 mg/kg: dose 0.078 mg/kg s.c. at 0 and 2 h post-challenge; for responders at 0.312 mg/kg: dose 0.312 mg/kg s.c. at 0 and 2 h post-challenge; for responders at 0.625 mg/kg: dose 0.625 mg/kg s.c. at 0 and 2 h post-challenge; for responders at 1.25 mg/kg: dose 1.25 mg/kg s.c. at 0 and 2 h post-challenge; for responders at 2.5 mg/kg: dose 2.5 mg/kg s.c. at 0 and 2 h post-challenge; for ED50: ATCC13709, mice, S. aureus ATCC 13709 i.p., s.c. at 0 and 2 h post-challenge, probit method; for responders at 0.156 mg/kg: dose 0.156 mg/kg s.c. at 0 and 2 h post-challenge
Protocol: 10 mice/group were injected intraperitoneally with 2.98×10^7 cfu S. aureus ATCC 13709 (Smith diffuse) and treated at 0 and 2 hrs post-challenge with serial two-fold doses of new cephalosporin antibiotic, imipenem and vancomycin subcutaneously in order to determine the ED50. Male Swiss-Webster mice weighing originally 24.2-26.1 g were obtained from Charles Rivers Labs, Hollister, Calif. Mice were housed 10 per cage and given free access to water and mouse chow.
Staphylococcus aureus ATCC 13709 (Smith diffuse) was grown overnight at 37° C. in Brain-heart Infusion broth (BHIB). The following morning, it was subcultured to fresh BHIB and incubated for 4-5 h at 37° C. The log-phase growth cells were washed once with physiological saline and adjusted to the desired concentration by correlation of absorbency at OD 600 nm with predetermined plate counts (NCCLS, 1994). The cell suspension was mixed with an equal volume of sterile 14% hog-gastric mucin (2). Inoculum was kept in an ice bath until used (<1 h).
Mice were challenged via an injection of 0.5 mL bacterial suspension intraperitoneally. The bacterial challenge was 2.98×10^7 cfu/mouse.
Imipenem (Primaxin IV; Lot 7294A), vancomycin (Vancocin; Lot 8MU60W), and new cephalosporin antibiotic were prepared by serial two-fold dilutions to concentrations of 0.078-0.005 mg/mL, 1.2-0.075 mg/mL, 0.3-0.02 mg/mL, 0.3-0.02 mg/mL and 0.3-0.02 mg/mL respectively in sterile water (1). All antibiotics were administered subcutaneously in 0.1 mL volumes at 0 and 2 hours post-challenge. Concentrations of all compounds are based on the weight of the bioactive ingredients.
The 50% effective dose (ED50) was calculated by the probit method (3) utilizing a program entitled Probit (Nycomed-Salutar).

[4] = Staphylococcus aureus, ATCC13709, sc, read-out: Efficacy in murine septicemia % survival
[5] = dose 5 mg/kg s.c. at 0 and 2 h post-challenge

`NCCSCc1nc(N)sc1SC1=C(C(=O)O)N2C(=O)[C@@H](NC(=O)/C(=N\O)c3nc(N)sc3Cl)[C@H]2SC1` [Cmpd 3, (7R)-7-[(Z)-2-(2-amino-5-chlorothiazol-4-yl)-2-(hydroxyimino)acetamido]-3-[4-(2-aminoethylthiomethyl)-2-amino-1,3-thiazol-5-ylthio]-3-cephem-4-carboxylic acid] was tested, and the “Serum Binding rat (% of compound bound to serum)” value [1] was 56%, the “Serum Binding rhesus (% of compound bound to serum)” value [2] was 93% and the responders at 0.078 mg/kg [3, 4] was 30%. It also gave a responders at 0.165 mg/kg ([3]; Staphylococcus aureus, ATCC13709, sc, dose 0.165 mg/kg s.c. at 0 and 2 h post-challenge, read-out: Efficacy in murine septicemia % survival) of 40%, a responders at 0.312 mg/kg [3, 4] of 50% and a responders at 0.625 mg/kg [3, 4] of 90%. For the same compound, the responders at 1.25 mg/kg [3, 4] was 90%, the responders at 2.5 mg/kg [3, 4] was 100% and the ED50 ([3]; Staphylococcus aureus) was 0.39 mg/kg.

With `NCCSCc1ncccc1SC1=C(C(=O)O)N2C(=O)[C@@H](NC(=O)/C(=N\O)c3nc(N)sc3Cl)[C@H]2SC1` [Cmpd 13, (7R)-7-[(Z)-2-(2-amino-5-chlorothiazol-4-yl)-2-(hydroxyimino)acetamido]-3-[2-(2-aminoethylthiomethyl)pyrid-3-ylthio]-3-cephem-4-carboxylic acid] the “Serum Binding rat (% of compound bound to serum)” value [1] was 85%, the responders at 0.625 mg/kg [3, 4] was 100% and the responders at 1.25 mg/kg [3, 4] was 100%. The responders at 2.5 mg/kg [3, 4] was 100% and the “Efficacy in murine septicemia % survival” value [3, 5] was 5/100%.

`N=C(N)NCCSCc1ncccc1SC1=C(C(=O)O)N2C(=O)[C@@H](NC(=O)/C(=N\O)c3nsc(N)n3)[C@H]2SC1` [Cmpd 14, (7R)-7-[(Z)-2-(5-amino-1,2,4-thiadiazol-3-yl)-2-(hydroxyimino)acetamido]-3-[2-(2-guanidinoethylthiomethyl)pyrid-3-ylthio]-3-cephem-4-carboxylic acid] was tested, and the responders at 0.312 mg/kg [3, 4] was 90%, the responders at 0.625 mg/kg [3, 4] was 100% and the responders at 1.25 mg/kg [3, 4] was 100%. For the same compound, the responders at 2.5 mg/kg [3, 4] was 100%, the ED50 ([3]; Staphylococcus aureus) was less than 0.31 mg/kg and the “Efficacy in murine septicemia % survival” value [3, 5] was 5/100%.

For `NCCSCc1ncccc1SC1=C(C(=O)O)N2C(=O)[C@@H](NC(=O)/C(=N\O)c3nsc(N)n3)[C@H]2SC1` [Cmpd 17, (7R)-7-[(Z)-2-(5-amino-1,2,4-thiadiazol-3-yl)-2-(hydroxyimino)acetamido]-3-[2-(2-aminoethylthiomethyl)pyrid-3-ylthio]-3-cephem-4-carboxylic acid], the “Serum Binding rat (% of compound bound to serum)” value [1] was 74%, the “Serum Binding rhesus (% of compound bound to serum)” value [2] was 81% and the responders at 0.12 mg/kg ([3]; Staphylococcus aureus, ATCC13709, sc, dose 0.12 mg/kg s.c. at 0 and 2 h post-challenge, read-out: Efficacy in murine septicemia % survival) was 10%. It also gave a responders at 0.25 mg/kg ([3]; Staphylococcus aureus, ATCC13709, sc, dose 0.25 mg/kg s.c. at 0 and 2 h post-challenge, read-out: Efficacy in murine septicemia % survival) of 20%, a responders at 0.5 mg/kg ([3]; Staphylococcus aureus, ATCC13709, sc, dose 0.5 mg/kg s.c. at 0 and 2 h post-challenge, read-out: Efficacy in murine septicemia % survival) of 50% and a responders at 1 mg/kg ([3]; Staphylococcus aureus, ATCC13709, sc, dose 1.0 mg/kg s.c. at 0 and 2 h post-challenge, read-out: Efficacy in murine septicemia % survival) of 100%. For the same compound, the responders at 2 mg/kg ([3]; Staphylococcus aureus, ATCC13709, sc, dose 2.0 mg/kg s.c. at 0 and 2 h post-challenge, read-out: Efficacy in murine septicemia % survival) was 100% and the ED50 ([3]; Staphylococcus aureus) was 0.39 mg/kg.

In the case of `NCCSCc1cnccc1SC1=C(C(=O)O)N2C(=O)[C@@H](NC(=O)/C(=N\O)c3nsc(N)n3)[C@H]2SC1` [Cmpd 18, (7R)-7-[(Z)-2-(5-amino-1,2,4-thiadiazol-3-yl)-2-(hydroxyimino)acetamido]-3-[3-(2-aminoethylthiomethyl)pyrid-4-ylthio]-3-cephem-4-carboxylic acid], the “Serum Binding rat (% of compound bound to serum)” value [1] is reported as 55%, the “Serum Binding rhesus (% of compound bound to serum)” value [2] is reported as 67% and the responders at 0.312 mg/kg [3, 4] is reported as 30%. The responders at 0.625 mg/kg [3, 4] was 60%, the responders at 1.25 mg/kg [3, 4] was 100% and the responders at 2.5 mg/kg [3, 4] was 100%. The ED50 ([3]; Staphylococcus aureus) was 0.46 mg/kg and the “Efficacy in murine septicemia % survival” value [3, 5] was 5/100%.

`NCCSCc1cnccc1SC1=C(C(=O)O)N2C(=O)C(NC(=O)/C(=N\O)c3csc(N)n3)C2SC1` (centres unmarked) [Cmpd 19] was tested, and the “Serum Binding rat (% of compound bound to serum)” value [1] was 76%, the “Serum Binding rhesus (% of compound bound to serum)” value [2] was 83% and the responders at 0.078 mg/kg [3, 4] was 20%. It also gave a responders at 0.156 mg/kg [3, 4] of 20%, a responders at 0.312 mg/kg [3, 4] of 20% and a responders at 0.625 mg/kg [3, 4] of 80%. The responders at 1.25 mg/kg [3, 4] was 100%.

For `NCCSCc1cnccc1SC1=C(C(=O)O)N2C(=O)[C@@H](NC(=O)/C(=N\O)c3nc(N)sc3Cl)[C@H]2SC1` [Cmpd 20, (7R)-7-[(Z)-2-(2-amino-5-chlorothiazol-4-yl)-2-(hydroxyimino)acetamido]-3-[3-(2-aminoethylthiomethyl)pyrid-4-ylthio]-3-cephem-4-carboxylic acid], the “Serum Binding rat (% of compound bound to serum)” value [1] was 71%, the “Serum Binding rhesus (% of compound bound to serum)” value [2] was 77% and the responders at 0.156 mg/kg [3, 4] was 20%. For the same compound, the responders at 0.312 mg/kg [3, 4] was 10%, the responders at 0.625 mg/kg [3, 4] was 30% and the responders at 1.25 mg/kg [3, 4] was 58%. The responders at 2.5 mg/kg [3, 4] was 80% and the ED50 ([3]; Staphylococcus aureus) was 1 mg/kg.

`NCCSCc1ccncc1SC1=C(C(=O)O)N2C(=O)[C@@H](NC(=O)/C(=N\O)c3nc(N)sc3Cl)[C@H]2SC1` [Cmpd 21, (7R)-7-[(Z)-2-(2-amino-5-chlorothiazol-4-yl)-2-(hydroxyimino)acetamido]-3-[4-(2-aminoethylthiomethyl)pyrid-3-ylthio]-3-cephem-4-carboxylic acid] was tested, and the “Serum Binding rat (% of compound bound to serum)” value [1] was 97%, the “Serum Binding rhesus (% of compound bound to serum)” value [2] was 97% and the responders at 0.312 mg/kg [3, 4] was 0%. For the same compound, the responders at 0.625 mg/kg [3, 4] was 0%, the responders at 1.25 mg/kg [3, 4] was 70% and the responders at 2.5 mg/kg [3, 4] was 80%. It also gave an ED50 ([3]; Staphylococcus aureus) of 0.79 mg/kg.

With `NCCSCc1ncsc1SC1=C(C(=O)O)N2C(=O)[C@@H](NC(=O)/C(=N\O)c3cccc(N)n3)[C@H]2SC1` [Cmpd 23, (7R)-7-[(Z)-2-(2-aminopyrid-6-yl)-2-(hydroxyimino)acetamido]-3-[4-(2-aminoethylthiomethyl)-1,3-thiazol-5-ylthio]-3-cephem-4-carboxylic acid] the “Serum Binding rat (% of compound bound to serum)” value [1] was 77%, the “Serum Binding rhesus (% of compound bound to serum)” value [2] was 93% and the responders at 0.312 mg/kg [3, 4] was 40%. For the same compound, the responders at 1.25 mg/kg [3, 4] was 100%, the responders at 2.5 mg/kg [3, 4] was 100% and the ED50 ([3]; Staphylococcus aureus) was 0.39 mg/kg. For the same compound, the “Efficacy in murine septicemia % survival” value [3, 5] was 5/100%.

For `NCCSCc1cnccc1SC1=C(C(=O)O)N2C(=O)[C@@H](NC(=O)/C(=N\O)c3cccc(N)n3)[C@H]2SC1` [Cmpd 24, (7R)-7-[(Z)-2-(2-aminopyrid-6-yl)-2-(hydroxyimino)acetamido]-3-[3-(2-aminoethylthiomethyl)pyrid-4-ylthio]-3-cephem-4-carboxylic acid], the “Serum Binding rat (% of compound bound to serum)” value [1] was 52%, the responders at 0.625 mg/kg [3, 4] was 30% and the responders at 1.25 mg/kg [3, 4] was 90%. The responders at 2.5 mg/kg [3, 4] was 100%, the ED50 ([3]; Staphylococcus aureus) was 0.76 mg/kg and the “Efficacy in murine septicemia % survival” value [3, 5] was 5/100%. For the same compound, the “Efficacy in murine septicemia % survival” value ([3]; dose 10 mg/kg s.c. at 0 and 2 h post-challenge) was 10/100%.

For `N=C(N)NCCSCc1cnccc1SC1=C(C(=O)O)N2C(=O)[C@@H](NC(=O)/C(=N\O)c3nsc(N)n3)[C@H]2SC1` [Cmpd 25, (7R)-7-[(Z)-2-(5-amino-1,2,4-thiadiazol-3-yl)-2-(hydroxyimino)acetamido]-3-[3-(2-guanidinoethylthiomethyl)pyrid-4-ylthio]-3-cephem-4-carboxylic acid], the “Serum Binding rat (% of compound bound to serum)” value [1] was 35%, the “Serum Binding rhesus (% of compound bound to serum)” value [2] was 55% and the responders at 0.312 mg/kg [3, 4] was 80%. It also gave a responders at 0.625 mg/kg [3, 4] of 100%, a responders at 1.25 mg/kg [3, 4] of 100% and a responders at 2.5 mg/kg [3, 4] of 100%. The ED50 ([3]; Staphylococcus aureus) was less than 0.31 mg/kg and the “Efficacy in murine septicemia % survival” value [3, 5] was 5/100%.
